Here are results for one compound from patent US7718677B2, “Methods and compositions for reduction of side effects of therapeutic treatments” (priority 2007, dated 2010).

The subject of this experiment is 6-hydroxydopamine-lesioned rats. The following applies: for L-dopa-induced AIMs, time course: L-dopa 8 then 12 mg/kg ip, ANOVA P<0.001; for L-dopa-induced AIMs, crossover to nicotine: rats initially without nicotine then given nicotine. The method, then: Animals. Experiments were performed using male Sprague-Dawley rats (initial weight 250 g) purchased from Charles River Laboratories (Gilroy, Calif.). They were housed 2 per cage under a 12-12 h light-dark cycle in a temperature-controlled room with free access to food and water. Three to four days after arrival, the rats were unilaterally lesioned with 6-hydroxydopamine as previously described (Cenci et al., 1998 Eur J Neurosci 10:2694-2706.; Cenci et al., 2002 Nat Rev Neurosci 3:574-579). During the lesioning procedure the rats were maintained under isofluorane anesthesia (2%). They were placed in a Kopf stereotaxic instrument and burr holes drilled through the skull at the following coordinates relative to the Bregma and dural surface: (1) anteroposterior, −4.4; lateral, 1.2; ventral, 7.8; tooth bar at −2.4; (2) anteroposterior, −4.0; lateral, 0.75; ventral, 8.0; tooth bar at +3.4 (Cenci et al., 1998 Eur J Neurosci 10:2694-2706.; Cenci et al., 2002 Nat Rev Neurosci 3:574-579). 6-Hydroxydopamine was dissolved in 0.02% ascorbic acid/saline at a concentration of 3 ug/ul. Two μl was stereotaxically injected at each of these sites for a total of […] into the right ascending dopamine fiber bundle. Infusion of 6-hydroxydopamine into the target area was over a 2-min period, with the cannula maintained at the site of injection for a further 2 min. All procedures conformed to the NIH Guide for the Care and Use of Laboratory Animals and were approved by the Institutional Animal Care and Use Committee.
Behavioral testing. Two and three weeks after lesioning, rats were tested for rotational behavior in an automated behavioral measurement apparatus (ROTOMAX, AccuScan Instruments Inc. Columbus, Ohio, USA). Each rat was placed in a cylindrical glass chamber for 30 min for acclimatization, after which amphetamine (4.0 mg/kg ip) was administered. The behavior was monitored for an additional 90 min, with rats making at least 100 ipsilateral turns used for further study.
Nicotine treatment. When the behavioral testing was completed, rats were treated with nicotine via the drinking water that yields an intermittent dosing regimen or via minipump that provides a constant level of nicotine. For administration via the drinking water, rats were first provided with a solution containing 1% saccharin (Sigma Chemical Co., St. Louis, Mo.) to mask the bitter taste of nicotine. After 2-3 days of acclimation, nicotine (free base, Sigma Chemical Co., St. Louis, Mo.) was added to the saccharin-containing drinking solution of the treated group (pH 7.0). Nicotine was initially given at a concentration of 25 μg/ml nicotine for 2 days.
In a separate series of experiments, rats were given nicotine continuously via Alzet minipumps (model 2004-200 μl), which secrete nicotine for 28 days. These were subcutaneously implanted according to the manufacturer's instruction. Pumps were filled with either sterilized water or nicotine base in water to deliver 2 mg/kg/d.
L-dopa treatment. Three weeks after initiation of the 50 ug/ml nicotine dose, the rats received single daily intraperitoneal injections of 8 mg/kg L-dopa methyl ester plus 15 mg/kg benserazide (both from Sigma Chemical Co., St. Louis, Mo.) (Cenci et al., 1998 Eur J Neurosci 10:2694-2706.; Cenci et al., 2002 Nat Rev Neurosci 3:574-579). After 3 weeks of daily L-dopa dosing, abnormal involuntary movements (AIMs) were quantified. These included (1) axial dystonia, contralateral twisted posturing of the neck and upper body; (2) orolingual dyskinesia, stereotyped jaw movements and contralateral tongue protrusion; and (3) forelimb dyskinesia, repetitive rhythmic jerks or dystonic posturing of the contralateral forelimb and/or grabbing movements of the contralateral paw (Cenci et al., 1998 Eur J Neurosci 10:2694-2706.; Cenci et al., 2002 Nat Rev Neurosci 3:574-579; Carta et al., 2006 Neurochem 96:1718-1727).

Where two headings read alike, the source gives them in different places.

For the compound `CN1CCCC1c1cccnc1` (centres unmarked) [Nicotine, S-3-(1-methyl-2-pyrrolidinyl)pyridine], the “individual AIM components (total, axial, oral, forelimb)” value (constant nicotine 2 mg/kg/d via minipump vs no nicotine, FIG. 15) is “reduced” and the “individual AIM components (total, axial, oral, forelimb)” value (intermittent nicotine in drinking solution vs saccharin only, FIG. 12) is reported as “reduced”. For the same compound, the “L-dopa-induced AIMs, time course” value (continuous nicotine 2 mg/kg/d via minipump, FIG. 14) is “significant effect” and the “L-dopa-induced AIMs, time course” value (intermittent nicotine 50 μg/ml in drinking water, FIG. 11) is recorded as “significant effect”. Moreover, the “AIMs development after removal of nicotine” value by setting is: (drinking water, rats initially on nicotine then given saccharin, FIG. 13) “increase”; (minipump, rats initially on nicotine then given minipumps containing no nicotine, FIG. 16) “increase”. Moreover, the “L-dopa-induced AIMs, crossover to nicotine” value (drinking water, FIG. 13) is recorded as “reduced” and the “L-dopa-induced AIMs, crossover to nicotine” value (minipump, FIG. 16) is “reduced”.
